Activity calls are given as the source filed them.

Test [1] concerns the target Lysine-specific demethylase 4A (Homo sapiens, UniProt O75164). As to the kind of experiment: inhibition of JMJD2A H3K9me3 demethylation – biochemical, DELFIA europium, cherry-picked samples, selectivity assay for GASC-1 inhibitor project, dose response (AID 488840).
For test [2], the target named is Lysine-specific demethylase 4C (Homo sapiens, UniProt Q9H3R0). Kind of test: inhibition of JMJD2C H3K9me3 demethylation – biochemical, DELFIA europium, cherry-picked samples, dose response (AID 488835). Type of test: functional.
The nature of test [3]: decrease of insulin promoter-GFP reporter – imaging, high-content screening, mouse beta cells (AID 1628). Type of test: functional. The following applies: MIN6.
Test [4] can be described thus: MIN6 cell viability loss – mouse insulinoma, cytotoxicity control, dose response (AID 2122).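 Note: confirmatory high-throughput counterscreen run to flag cytotoxic compounds.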 It is filed as functional.
Test [5] in a line: viability loss in HeLa cells – cytotoxicity control for MgcRacGAP inhibitor project, dose response (AID 624300). Type of test: functional.
Test [6] has as its target T1, Rac GTPase-activating protein 1 (Homo sapiens, UniProt Q9H0H5).
T1 sequence (Q9H0H5 whole entry): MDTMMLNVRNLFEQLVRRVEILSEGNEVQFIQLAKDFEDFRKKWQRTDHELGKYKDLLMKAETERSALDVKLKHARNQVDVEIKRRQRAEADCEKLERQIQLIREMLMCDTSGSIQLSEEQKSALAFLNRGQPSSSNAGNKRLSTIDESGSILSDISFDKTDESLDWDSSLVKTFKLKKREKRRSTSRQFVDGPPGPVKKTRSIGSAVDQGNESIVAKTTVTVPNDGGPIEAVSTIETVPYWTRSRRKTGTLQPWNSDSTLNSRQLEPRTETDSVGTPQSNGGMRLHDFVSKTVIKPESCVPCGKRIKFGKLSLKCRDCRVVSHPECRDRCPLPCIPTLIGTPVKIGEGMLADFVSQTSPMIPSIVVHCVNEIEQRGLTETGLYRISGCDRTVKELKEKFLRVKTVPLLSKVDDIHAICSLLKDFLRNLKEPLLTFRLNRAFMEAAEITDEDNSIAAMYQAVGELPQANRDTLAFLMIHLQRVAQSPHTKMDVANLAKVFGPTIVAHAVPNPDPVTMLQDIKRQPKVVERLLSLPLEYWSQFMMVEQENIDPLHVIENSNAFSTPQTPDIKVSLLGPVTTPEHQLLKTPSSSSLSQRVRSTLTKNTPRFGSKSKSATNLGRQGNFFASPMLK
Kind of test: blockers of MgcRacGAP-driven Rac1 GTP hydrolysis – biochemical, ADP Hunter fluorescence, primary and confirmatory, confirmation (AID 624330). It is filed as functional.

Test [7] addresses T2, SUMO-activating enzyme (Homo sapiens, UniProt Q9UBT2). Kind of test: blockers of UBC9-mediated SUMO conjugation – biochemical, AlphaScreen, SUMOylation inhibitor project, confirmation (AID 2018). It is filed as functional.
In test [8] the target is Large T antigen (Simian virus 40, UniProt P03070). Type of test: functional, Betapolyomavirus macacae.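 Note: Confirmatory-stage PubChem screen for compounds that inhibit SV40 T antigen.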
The target of test [9] is T2, SUMO-activating enzyme. Kind of test: blockers of SAE1/SAE2–UBC9 SUMO transfer – biochemical, HTRF, uHTS, primary screen (AID 2006). It is filed as protein-complex assay.
Test [10] concerns the target Intestinal-type alkaline phosphatase (Mus musculus, UniProt P24822). Kind of test: PubChem AID 488785. It is filed as functional.
For test [11], the target named is T3, Alkaline phosphatase, tissue-nonspecific isozyme (Homo sapiens, UniProt P05186).
T3 sequence (P05186 whole entry): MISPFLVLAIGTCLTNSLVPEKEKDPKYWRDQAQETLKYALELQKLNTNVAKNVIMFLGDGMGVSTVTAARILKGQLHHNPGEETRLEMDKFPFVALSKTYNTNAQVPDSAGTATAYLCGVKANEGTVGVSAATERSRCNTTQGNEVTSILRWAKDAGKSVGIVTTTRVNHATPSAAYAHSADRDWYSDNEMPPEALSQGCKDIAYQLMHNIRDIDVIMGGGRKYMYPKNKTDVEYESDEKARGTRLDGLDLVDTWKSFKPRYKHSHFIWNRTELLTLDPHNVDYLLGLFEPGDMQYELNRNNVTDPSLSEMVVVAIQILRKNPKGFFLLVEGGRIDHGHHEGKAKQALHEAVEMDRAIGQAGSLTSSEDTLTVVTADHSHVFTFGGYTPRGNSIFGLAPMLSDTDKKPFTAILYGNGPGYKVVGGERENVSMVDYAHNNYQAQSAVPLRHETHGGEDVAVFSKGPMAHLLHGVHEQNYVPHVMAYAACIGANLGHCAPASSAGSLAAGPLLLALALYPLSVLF
Kind of test: TNAP enzyme inhibition by screening hits, dose response, selectivity assay for mouse IAP inhibitor project, biochemical, human TNAP, uHTS hits (AID 488906). It is filed as functional.

Test [12] has as its target Intestinal-type alkaline phosphatase (Homo sapiens, UniProt P09923). Kind of test: inhibition of human intestinal alkaline phosphatase – biochemical, dose response (AID 488876). Type of test: functional.
The target in test [13] is T4, RNA-binding protein pos-1 (Caenorhabditis elegans, UniProt G5EF15).
T4 sequence (G5EF15 whole entry): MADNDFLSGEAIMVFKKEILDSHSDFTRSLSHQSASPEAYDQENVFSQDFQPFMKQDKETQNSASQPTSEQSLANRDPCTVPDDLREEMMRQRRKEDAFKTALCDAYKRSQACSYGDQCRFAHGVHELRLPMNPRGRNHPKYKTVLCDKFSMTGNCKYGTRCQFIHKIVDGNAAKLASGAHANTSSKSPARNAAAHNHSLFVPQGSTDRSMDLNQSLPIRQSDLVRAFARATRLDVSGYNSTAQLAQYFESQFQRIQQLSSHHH
As to the kind of experiment: disruptors of C. elegans POS-1 RNA interaction – biochemical, fluorescence polarization, dose response (AID 1964).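 Note: purified POS-1 fused to maltose binding protein made in E. coli; potency of compounds blocking POS-1 binding to fluorescent RNA.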

Test [14] addresses T5, Zinc finger protein mex-5 (Caenorhabditis elegans, UniProt Q9XUB2).
T5 sequence (Q9XUB2 whole entry): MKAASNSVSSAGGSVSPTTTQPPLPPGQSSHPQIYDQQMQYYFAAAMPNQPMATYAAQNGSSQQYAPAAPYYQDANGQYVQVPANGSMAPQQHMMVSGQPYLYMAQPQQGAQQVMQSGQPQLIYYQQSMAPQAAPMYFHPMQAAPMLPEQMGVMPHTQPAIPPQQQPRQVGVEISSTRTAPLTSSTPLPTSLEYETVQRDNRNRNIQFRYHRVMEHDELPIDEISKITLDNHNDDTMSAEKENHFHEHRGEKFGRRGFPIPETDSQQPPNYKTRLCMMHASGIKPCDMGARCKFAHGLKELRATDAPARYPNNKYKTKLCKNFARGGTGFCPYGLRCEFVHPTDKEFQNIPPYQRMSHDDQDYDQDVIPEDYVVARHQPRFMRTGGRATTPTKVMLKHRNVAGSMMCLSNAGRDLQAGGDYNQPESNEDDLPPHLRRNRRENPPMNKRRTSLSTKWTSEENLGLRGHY
Kind of test: potency of MEX-5 RNA-binding blockers – biochemical, C. elegans, fluorescence polarization, dose response (AID 1960). Background: In fluorescence polarisation assays a small probe gives low polarisation when free and higher when bound to something large.

Test [15] deals with SUMO E1/E2 (Homo sapiens, UniProt P63279+Q9UBE0+Q9UBT2). As to the kind of experiment: SAR analysis of SUMOylation using HTRF in an in-Vitro dose response assay. [Related pubchem assays (depositor defined):AID2006, AID2011, AID2018, AID2069, AID2658]. It is filed as functional.
Test [16] has as its target T6, Sentrin-specific protease 8 (Homo sapiens, UniProt Q96LD8).
T6 sequence (Q96LD8 whole entry): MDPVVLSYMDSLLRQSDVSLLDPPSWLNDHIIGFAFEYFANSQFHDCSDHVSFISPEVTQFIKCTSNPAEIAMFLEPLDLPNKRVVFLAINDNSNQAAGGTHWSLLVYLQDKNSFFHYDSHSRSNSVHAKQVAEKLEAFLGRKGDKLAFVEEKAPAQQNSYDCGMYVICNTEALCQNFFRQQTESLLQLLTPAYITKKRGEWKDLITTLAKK
Type of test: functional.

Test [17] has as its target T6, Sentrin-specific protease 8. It is filed as functional. This is another data set of the same source.
In test [18] the target is Tyrosyl-DNA phosphodiesterase 2 (Homo sapiens, UniProt O95551). Kind of test: potency against TDP2 phosphodiesterase activity – biochemical, epi absorbance, IC50, dose response (AID 743297).
Sequence of Tyrosyl-DNA phosphodiesterase 2 (O95551 whole entry): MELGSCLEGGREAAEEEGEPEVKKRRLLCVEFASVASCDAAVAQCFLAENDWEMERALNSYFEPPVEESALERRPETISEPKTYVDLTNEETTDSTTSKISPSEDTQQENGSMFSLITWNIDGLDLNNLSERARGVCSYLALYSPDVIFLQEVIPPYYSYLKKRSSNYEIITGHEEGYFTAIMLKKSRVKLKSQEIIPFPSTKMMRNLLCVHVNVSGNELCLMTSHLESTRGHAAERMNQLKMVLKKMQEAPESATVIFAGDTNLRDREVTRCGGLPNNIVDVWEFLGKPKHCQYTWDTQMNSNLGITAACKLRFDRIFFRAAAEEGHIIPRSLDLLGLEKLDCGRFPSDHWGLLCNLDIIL

T2 sequence (Q9UBE0 whole entry): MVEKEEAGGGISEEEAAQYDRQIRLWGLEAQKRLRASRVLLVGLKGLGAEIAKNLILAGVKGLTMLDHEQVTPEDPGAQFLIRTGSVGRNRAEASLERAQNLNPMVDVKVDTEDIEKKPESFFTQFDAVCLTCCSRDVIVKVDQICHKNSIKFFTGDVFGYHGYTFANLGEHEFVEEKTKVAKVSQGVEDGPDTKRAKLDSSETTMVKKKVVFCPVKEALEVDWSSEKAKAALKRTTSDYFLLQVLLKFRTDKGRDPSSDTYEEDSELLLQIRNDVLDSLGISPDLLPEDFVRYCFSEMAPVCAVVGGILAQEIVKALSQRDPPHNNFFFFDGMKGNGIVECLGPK
T2 sequence (Q9UBT2 whole entry): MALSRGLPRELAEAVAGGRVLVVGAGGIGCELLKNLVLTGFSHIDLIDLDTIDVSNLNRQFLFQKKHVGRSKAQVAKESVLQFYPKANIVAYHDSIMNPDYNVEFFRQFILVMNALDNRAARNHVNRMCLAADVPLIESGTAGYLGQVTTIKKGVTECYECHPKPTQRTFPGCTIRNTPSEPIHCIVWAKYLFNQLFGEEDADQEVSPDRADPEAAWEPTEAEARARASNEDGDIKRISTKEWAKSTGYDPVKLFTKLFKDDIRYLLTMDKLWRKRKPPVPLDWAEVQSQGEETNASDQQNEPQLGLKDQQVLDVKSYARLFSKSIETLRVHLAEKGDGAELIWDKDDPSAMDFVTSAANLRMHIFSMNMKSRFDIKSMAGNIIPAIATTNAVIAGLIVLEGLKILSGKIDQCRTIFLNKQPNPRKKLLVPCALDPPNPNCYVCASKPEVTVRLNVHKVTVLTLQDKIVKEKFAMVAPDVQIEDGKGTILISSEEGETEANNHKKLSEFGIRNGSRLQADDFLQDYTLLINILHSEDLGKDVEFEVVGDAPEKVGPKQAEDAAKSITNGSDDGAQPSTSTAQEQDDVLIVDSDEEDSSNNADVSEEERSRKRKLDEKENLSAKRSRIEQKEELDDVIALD
Sequence of Lysine-specific demethylase 4C (Q9H3R0 whole entry): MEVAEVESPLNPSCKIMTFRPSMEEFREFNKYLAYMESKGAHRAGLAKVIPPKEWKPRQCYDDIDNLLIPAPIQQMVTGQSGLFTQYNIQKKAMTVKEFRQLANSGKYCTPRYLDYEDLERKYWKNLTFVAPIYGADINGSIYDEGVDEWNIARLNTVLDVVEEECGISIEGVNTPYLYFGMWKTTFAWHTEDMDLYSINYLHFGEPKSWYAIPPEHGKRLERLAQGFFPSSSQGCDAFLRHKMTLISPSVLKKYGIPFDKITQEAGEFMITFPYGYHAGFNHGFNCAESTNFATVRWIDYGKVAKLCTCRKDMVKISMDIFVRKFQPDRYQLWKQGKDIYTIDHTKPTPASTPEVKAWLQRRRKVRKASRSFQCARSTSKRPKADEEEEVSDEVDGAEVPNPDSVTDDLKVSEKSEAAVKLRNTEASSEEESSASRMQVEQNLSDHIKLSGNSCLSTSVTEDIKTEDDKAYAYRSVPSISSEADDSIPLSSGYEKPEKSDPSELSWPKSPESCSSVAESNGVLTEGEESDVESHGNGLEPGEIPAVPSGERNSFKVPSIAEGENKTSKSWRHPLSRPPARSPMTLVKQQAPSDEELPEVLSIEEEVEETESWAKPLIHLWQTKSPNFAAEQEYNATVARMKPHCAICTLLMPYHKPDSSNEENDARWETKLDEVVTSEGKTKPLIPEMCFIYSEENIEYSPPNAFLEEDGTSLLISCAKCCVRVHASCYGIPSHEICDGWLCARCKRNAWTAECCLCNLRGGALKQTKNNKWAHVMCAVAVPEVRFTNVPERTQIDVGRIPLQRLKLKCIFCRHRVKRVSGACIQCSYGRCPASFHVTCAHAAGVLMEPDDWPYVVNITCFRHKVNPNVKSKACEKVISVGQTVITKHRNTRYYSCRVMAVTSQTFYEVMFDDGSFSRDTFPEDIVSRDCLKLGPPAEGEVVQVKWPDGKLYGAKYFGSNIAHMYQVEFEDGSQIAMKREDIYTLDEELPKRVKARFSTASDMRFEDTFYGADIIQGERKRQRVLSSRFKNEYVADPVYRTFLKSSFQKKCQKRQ
Sequence of SUMO E1/E2 (Q9UBE0 whole entry): as the sequence (Q9UBE0 whole entry) above
Sequence of SUMO E1/E2 (Q9UBT2 whole entry): as the sequence (Q9UBT2 whole entry) above
Sequence of SUMO E1/E2 (P63279 whole entry): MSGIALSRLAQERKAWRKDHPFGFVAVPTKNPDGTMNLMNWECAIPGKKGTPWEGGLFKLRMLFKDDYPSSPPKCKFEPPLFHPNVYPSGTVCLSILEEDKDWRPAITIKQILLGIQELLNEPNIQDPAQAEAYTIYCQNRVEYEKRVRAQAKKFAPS
Sequence of Large T antigen (P03070 whole entry): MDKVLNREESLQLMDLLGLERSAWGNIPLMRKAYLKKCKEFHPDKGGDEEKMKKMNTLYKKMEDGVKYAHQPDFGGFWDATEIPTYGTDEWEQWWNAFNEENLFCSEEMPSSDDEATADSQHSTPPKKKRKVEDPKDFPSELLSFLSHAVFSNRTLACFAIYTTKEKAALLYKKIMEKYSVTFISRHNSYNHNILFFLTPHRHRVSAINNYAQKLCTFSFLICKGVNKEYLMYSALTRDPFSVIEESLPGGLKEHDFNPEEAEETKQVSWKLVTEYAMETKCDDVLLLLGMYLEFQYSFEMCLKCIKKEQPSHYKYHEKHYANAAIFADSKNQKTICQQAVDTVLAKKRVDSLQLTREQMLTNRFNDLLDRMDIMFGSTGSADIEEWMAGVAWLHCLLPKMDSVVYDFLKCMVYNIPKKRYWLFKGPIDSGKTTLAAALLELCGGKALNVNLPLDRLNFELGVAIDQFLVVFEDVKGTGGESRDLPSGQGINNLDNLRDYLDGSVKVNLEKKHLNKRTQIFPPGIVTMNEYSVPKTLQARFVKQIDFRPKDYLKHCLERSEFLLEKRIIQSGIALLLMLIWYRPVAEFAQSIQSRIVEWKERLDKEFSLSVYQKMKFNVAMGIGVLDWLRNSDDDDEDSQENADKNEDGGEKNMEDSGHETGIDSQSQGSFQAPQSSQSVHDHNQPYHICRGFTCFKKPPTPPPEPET
Sequence of Intestinal-type alkaline phosphatase (Mus musculus, UniProt P24822) (P24822 whole entry): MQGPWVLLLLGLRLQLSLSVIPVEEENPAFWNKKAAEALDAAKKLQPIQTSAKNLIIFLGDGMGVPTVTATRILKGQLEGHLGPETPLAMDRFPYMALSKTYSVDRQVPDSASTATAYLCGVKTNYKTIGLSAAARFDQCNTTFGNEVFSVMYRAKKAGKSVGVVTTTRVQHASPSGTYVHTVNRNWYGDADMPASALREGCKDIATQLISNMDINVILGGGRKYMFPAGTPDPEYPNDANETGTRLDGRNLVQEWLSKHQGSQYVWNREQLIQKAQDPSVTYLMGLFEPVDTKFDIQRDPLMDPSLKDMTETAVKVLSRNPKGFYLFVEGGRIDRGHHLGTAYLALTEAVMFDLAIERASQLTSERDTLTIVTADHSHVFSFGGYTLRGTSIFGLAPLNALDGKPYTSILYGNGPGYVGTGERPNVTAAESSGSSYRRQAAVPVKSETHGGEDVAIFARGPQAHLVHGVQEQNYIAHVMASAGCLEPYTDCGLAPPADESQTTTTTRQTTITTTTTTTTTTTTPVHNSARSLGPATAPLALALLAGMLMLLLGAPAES
Sequence of Intestinal-type alkaline phosphatase (Homo sapiens, UniProt P09923) (P09923 whole entry): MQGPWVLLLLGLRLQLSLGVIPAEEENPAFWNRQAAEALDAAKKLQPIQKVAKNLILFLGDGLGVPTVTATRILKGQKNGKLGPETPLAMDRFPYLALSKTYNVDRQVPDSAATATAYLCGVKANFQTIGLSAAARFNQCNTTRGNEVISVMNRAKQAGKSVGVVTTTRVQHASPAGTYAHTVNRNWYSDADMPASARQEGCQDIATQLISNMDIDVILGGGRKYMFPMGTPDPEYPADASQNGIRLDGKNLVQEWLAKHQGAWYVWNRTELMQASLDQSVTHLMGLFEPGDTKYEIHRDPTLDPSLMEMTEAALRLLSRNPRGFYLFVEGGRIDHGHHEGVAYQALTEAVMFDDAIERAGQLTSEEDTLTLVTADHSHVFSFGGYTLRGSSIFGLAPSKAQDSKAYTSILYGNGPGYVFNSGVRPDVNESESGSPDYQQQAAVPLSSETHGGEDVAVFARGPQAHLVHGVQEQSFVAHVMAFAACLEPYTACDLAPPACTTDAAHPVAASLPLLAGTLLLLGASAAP

Consider `Cc1ccc(C)c(Cn2c(C(=O)OC(C)C)cc3c2ccn3C)c1`, for which the half-maximal activity concentration (AC50) is 21.9 µM (active) in [1] and 11.6 µM (active) in test [2].
`COc1ccc(-c2nc(-c3ccc(O)cc3O)cs2)cc1OC`: the values for the 50% inhibitory concentration (IC50) in [3], in test [4] and in [6] were 4.5 µM (active), 14.1 µM (inactive) and 55.1 µM (active), respectively. In [5], the CC50 was 74.7 µM (active).
For the compound `NC1=NC(=O)/C(=C\c2ccco2)S1`, the IC50 in [7] is 2.89 µM (active); in test [8], 67.2 µM (active); in test [9], 21.7 µM (active); in [10], 4.59 µM (active); in test [11], > 100 µM (inactive); in test [12], 19.8 µM (active).
Consider `Cc1[nH][nH]c(=O)c1C(c1ccc(-c2cccc(C(=O)O)c2)o1)c1c(C)[nH][nH]c1=O`, for which the figures for the EC50 in test [13] and in test [14] were 18.1 µM (active) and 5.56 µM (active), respectively. Besides, the IC50 in [15] is 84.1 µM (active); in [16], 17.8 µM (active); in [17], 11.9 µM (active); in [18], > 128 µM (inactive).

What is called AC50 is the concentration giving half of the maximal activity seen. A word on the IC50: it is the concentration at which inhibition is half-maximal. One may read the CC50 as the concentration giving 50% cytotoxicity. By EC50 is commonly meant the midpoint of the concentration-response curve.

These data come from ChEMBL document CHEMBL1201862, “PubChem BioAssay data set” (2004).
